Patent US7045537B1, “Protein structures and protein fibres” (The University of Sussex, priority 1999, dated 2006)
Residues, ends and D or L forms follow the SMILES beside them.

How the values were obtained:
Assay type in all cases: physicochemical
[1] = Solubility remarks in peptide design table; settings: individual peptide
Description: Various peptide monomer units were designed as described above. The monomers and capping peptides (designed to complement the sticky ends of the monomers so as to produce flush, or blunt ends and, so, arrest longitudinal fibre assembly) are set out in Table 1: […]

[2] = Electron microscopy (TEM/SEM) of peptide preparations; settings: individual peptide
Procedure: To confirm fibre assembly, we used electron microscopy to visualize structures in the peptide preparations directly. For TEM experiments, peptide samples were incubated for 1 h at 5° C. in filtered 10 mM MOPS, pH 7. A drop of peptide solution was applied to a carbon-coated copper specimen grid (Agar Scientific Ltd, Stansted, UK), and dried with filter paper before negative staining with 0.5% aqueous uranyl acetate and then dried at 5° C. A “fresh” SAF peptide mixture was prepared by mixing preincubated solutions of the individual peptides at 200 μM directly on the specimen grid, before drying and negative staining as described. Grids were examined in a Hitachi 7100 TEM at 100 kV and digital images were acquired with a (800×1200 pixel) charge-coupled device camera (Digital Pixel Co. Ltd., Brighton, UK) and analyzed (Kinetic Imaging Ltd., Liverpool, UK).
For scanning electron microscopy (SEM) experiments, negatively-stained specimen grids were sputter-coated with gold and examined in a Leo Stereoscan 420 SEM at 20 kV and with a probe current of 10 pA.

[3] = Circular dichroism (CD) spectroscopy of peptides and peptide mixtures; settings: individual peptide, 10 mM MOPS pH 7, 5° C.
Procedure: Peptide samples were incubated at 5° C. in 10 mM MOPS (3-(N-Morpholino)propanesulfonic acid), pH 7. Sample concentrations were determined from their UV absorbance at 280 nm (SAF-p1) and 214 nm (SAF-p2). After baseline correction, ellipticities in mdeg were converted to molar ellipticities (deg cm^2 dmol-res^−1) by normalizing for the concentration of peptide bonds. Data were recorded in a cell of 1 mm path length by integrating the signal for 5s (and 1s for the fresh 100 μM peptide mixture) every nm in the range 205–260 nm. CD measurements were made using a JASCO J-715 spectropolarimeter fitted with a Peltier temperature controller.
The CD data shown in FIG. 3 provides spectroscopic evidence for the formation of helical structures by the SAF peptides.
Consistent with our design, neither SAF-p1 nor SAF-p2 was highly structured in aqueous solution at pH 7 and 5° C. (FIG. 3). However, when mixed in equal proportions the circular dichroism (CD) spectrum changed and, moreover, was markedly different from the theoretical spectrum generated by averaging the spectra for the isolated peptides. In particular, the spectrum for the mixture had intense minima at 208 and 222 nm consistent with the formation of α-helical structure, but these features were not as pronounced in the spectra of the individual peptides. This was clear evidence that the two peptides interacted to form an α-helical structure as designed. Furthermore, and as expected for a multimerization event, the magnitude of these spectral changes depended on peptide concentration; a SAF mixture with 10 μM of each peptide, did show a weak signal indicative of some α-helical structure, however, a 100 μM mixture gave a much stronger signal (FIGS. 3A&B).
The shape and intensity of spectra from 100 μM mixtures of the SAF peptides also changed with time (FIG. 3B). […] After incubation of the mixture for 1 hour at 5° C. (“maturation”), however, the signal at 222 nm was more intense, and indicated approximately 75% α-helix, consistent with substantial coiled-coil formation.

[4] = Linear dichroism (LD) spectroscopy under shear flow; settings: for LD DATA @ 100 μM (signal): individual peptide
Procedure: Linear dichroism (LD) spectroscopy was also used to test if elongated structures were being formed as designed. Long polymers such as DNA molecules can be oriented by shear flow. This effect can be monitored by LD spectroscopy provided that chromophores also become aligned by the flow (M. Bloemendal (1994) Chem. Soc. Rev. 23, 265; A. Rodger and B. Norden (1997) Oxford Chemistry Masters (Oxford University Press, Oxford), vol. 1).
Peptide samples were prepared for LD as for CD. LD data were collected on samples spinning in a couette flow cell by integrating the signal for 2 s every nm in the range […], using a JASCO J-715 spectropolarimeter. After baseline correction, absorbance was converted to molar extinction coefficient (1 mol-res^−1 cm^−1) by normalizing for the concentration of peptide bonds. A linear correction for a sloping baseline was made to the data from the 100 μM SAF peptide mixture.

For `CC[C@H](C)[C@H](NC(=O)[C@H](CCCCN)NC(=O)[C@H](CCC(N)=O)NC(=O)[C@H](CCCCN)NC(=O)[C@H](CC(C)C)NC(=O)[C@H](C)NC(=O)[C@H](C)NC(=O)[C@@H](NC(=O)[C@@H](N)CCCCN)[C@@H](C)CC)C(=O)N[C@@H](C)C(=O)N[C@@H](C)C(=O)N[C@@H](CC(C)C)C(=O)N[C@@H](CCCCN)C(=O)N[C@@H](CCC(N)=O)C(=O)N[C@@H](CCC(=O)O)C(=O)N[C@H](C(=O)N[C@@H](CC(=O)O)C(=O)N[C@@H](C)C(=O)N[C@@H](CC(C)C)C(=O)N[C@@H](CCC(=O)O)C(=O)N[C@@H](Cc1ccc(O)cc1)C(=O)N[C@@H](CCC(=O)O)C(=O)N[C@@H](CC(N)=O)C(=O)N[C@@H](CC(=O)O)C(=O)N[C@@H](C)C(=O)N[C@@H](CC(C)C)C(=O)N[C@@H](CCC(=O)O)C(=O)N[C@@H](CCC(N)=O)C(=O)O)[C@@H](C)CC` [SAF-p1A] (H-KIAALKQKIAALKQEIDALEYENDALEQ-OH), the “DESIGN remark on solubility / precipitation” value [1] was “precipitates”, the “EM DATA @ 100 μM (fibres)” value [2] was “no” and the “CD DATA @ 10 μM (α-helix)” value [3] was “unfolded”. The “CD DATA @ 100 μM (α-helix)” value [3] was ~45%.

In the case of `CC[C@H](C)[C@H](NC(=O)[C@H](CCCCN)NC(C)=O)C(=O)N[C@@H](C)C(=O)N[C@@H](C)C(=O)N[C@@H](CC(C)C)C(=O)N[C@@H](CCCCN)C(=O)N[C@@H](CCC(N)=O)C(=O)N[C@@H](CCCCN)C(=O)N[C@H](C(=O)N[C@@H](C)C(=O)N[C@@H](C)C(=O)N[C@@H](CC(C)C)C(=O)N[C@@H](CCCCN)C(=O)N[C@@H](CCC(N)=O)C(=O)N[C@@H](CCC(=O)O)C(=O)N[C@H](C(=O)N[C@@H](CC(=O)O)C(=O)N[C@@H](C)C(=O)N[C@@H](CC(C)C)C(=O)N[C@@H](CCC(=O)O)C(=O)N[C@@H](Cc1ccc(O)cc1)C(=O)N[C@@H](CCC(=O)O)C(=O)N[C@@H](CC(N)=O)C(=O)N[C@@H](CC(=O)O)C(=O)N[C@@H](C)C(=O)N[C@@H](CC(C)C)C(=O)N[C@@H](CCC(=O)O)C(=O)N[C@@H](CCC(N)=O)C(N)=O)[C@@H](C)CC)[C@@H](C)CC` [SAF-p1B, *K IAALKQK IAALKQE IDALEYE NDALEQ*] (Ac-KIAALKQKIAALKQEIDALEYENDALEQ-NH2), the “CD DATA @ 10 μM (α-helix)” value [3] was ~60% and the “CD DATA @ 100 μM (α-helix)” value [3] was ~70%.

In the case of `CC[C@H](C)[C@H](NC(=O)[C@H](CCCCN)NC(=O)[C@H](CCC(N)=O)NC(=O)[C@H](CCCCN)NC(=O)[C@H](CC(C)C)NC(=O)[C@H](C)NC(=O)[C@H](C)NC(=O)[C@@H](NC(=O)[C@@H](N)CCCCN)[C@@H](C)CC)C(=O)N[C@@H](C)C(=O)N[C@@H](CO)C(=O)N[C@@H](CC(C)C)C(=O)N[C@@H](CCCCN)C(=O)N[C@@H](CCC(N)=O)C(=O)N[C@@H](CCC(=O)O)C(=O)N[C@H](C(=O)N[C@@H](CC(=O)O)C(=O)N[C@@H](C)C(=O)N[C@@H](CC(C)C)C(=O)N[C@@H](CCC(=O)O)C(=O)N[C@@H](Cc1ccc(O)cc1)C(=O)N[C@@H](CCC(=O)O)C(=O)N[C@@H](CC(N)=O)C(=O)N[C@@H](CC(=O)O)C(=O)N[C@@H](C)C(=O)N[C@@H](CC(C)C)C(=O)N[C@@H](CCC(=O)O)C(=O)N[C@@H](CCC(N)=O)C(=O)O)[C@@H](C)CC` [SAF-p1C] (H-KIAALKQKIASLKQEIDALEYENDALEQ-OH), the “LD DATA @ 100 μM (signal)” value [4] was “no”, the “EM DATA @ 100 μM (fibres)” value [2] was “no” and the “CD DATA @ 10 μM (α-helix)” value [3] was “unfolded”. The “CD DATA @ 100 μM (α-helix)” value [3] was ~20%.

In the case of `CC[C@H](C)[C@H](NC(=O)[C@H](CCC(=O)O)NC(=O)[C@H](CCC(N)=O)NC(=O)[C@H](CCC(=O)O)NC(=O)[C@H](CC(C)C)NC(=O)[C@H](C)NC(=O)[C@H](C)NC(=O)[C@@H](NC(=O)[C@H](CCC(=O)O)NC(=O)[C@H](CCC(N)=O)NC(=O)[C@H](CCCCN)NC(=O)[C@H](CC(C)C)NC(=O)[C@H](Cc1c[nH]cn1)NC(=O)[C@H](C)NC(=O)[C@H](CC(N)=O)NC(=O)[C@H](CCCCN)NC(=O)[C@H](Cc1c[nH]c2ccccc12)NC(=O)[C@H](CCCCN)NC(=O)[C@H](CC(C)C)NC(=O)[C@H](C)NC(=O)[C@H](CCCNC(=N)N)NC(=O)[C@@H](NC(=O)[C@H](CCCCN)NC(C)=O)[C@@H](C)CC)[C@@H](C)CC)C(=O)N[C@@H](C)C(=O)N[C@@H](C)C(=O)N[C@@H](CC(C)C)C(=O)N[C@@H](CCC(=O)O)C(=O)N[C@@H](CCC(N)=O)C(N)=O` [SAF-p2B, *K IRALKWK NAHLKQE IAALEQE IAALEQ*] (Ac-KIRALKWKNAHLKQEIAALEQEIAALEQ-NH2), the “CD DATA @ 10 μM (α-helix)” value [3] was ~60% and the “CD DATA @ 100 μM (α-helix)” value [3] was ~95%.

With `CC[C@H](C)[C@H](NC(=O)[C@H](CCC(=O)O)NC(=O)[C@H](CCC(N)=O)NC(=O)[C@H](CCC(=O)O)NC(=O)[C@H](CC(C)C)NC(=O)[C@H](C)NC(=O)[C@H](C)NC(=O)[C@@H](NC(=O)[C@H](CCC(=O)O)NC(=O)[C@H](CCC(N)=O)NC(=O)[C@H](CCCCN)NC(=O)[C@H](CC(C)C)NC(=O)[C@H](Cc1c[nH]cn1)NC(=O)[C@H](C)NC(=O)[C@H](CC(N)=O)NC(=O)[C@H](CCCCN)NC(=O)[C@H](Cc1c[nH]c2ccccc12)NC(=O)[C@H](CCCCN)NC(=O)[C@H](CC(C)C)NC(=O)[C@H](C)NC(=O)[C@H](CCCNC(=N)N)NC(=O)[C@@H](NC(=O)[C@@H](N)CCCCN)[C@@H](C)CC)[C@@H](C)CC)C(=O)N[C@@H](C)C(=O)N[C@@H](C)C(=O)N[C@@H](CC(C)C)C(=O)N[C@@H](CCC(=O)O)C(=O)N[C@@H](CCC(N)=O)C(=O)O` [SAF-p2C] (H-KIRALKWKNAHLKQEIAALEQEIAALEQ-OH) the “EM DATA @ 100 μM (fibres)” value [2] was “thin”, the “CD DATA @ 10 μM (α-helix)” value [3] was “unfolded” and the “CD DATA @ 100 μM (α-helix)” value [3] was ~20%.

In the case of `CC[C@H](C)[C@H](NC(=O)[C@H](CCC(=O)O)NC(=O)[C@H](CCC(N)=O)NC(=O)[C@H](CCC(=O)O)NC(=O)[C@H](CC(C)C)NC(=O)[C@H](C)NC(=O)[C@H](C)NC(=O)[C@@H](NC(=O)[C@H](CCC(=O)O)NC(=O)[C@H](CCC(N)=O)NC(=O)[C@H](CCCCN)NC(=O)[C@H](CC(C)C)NC(=O)[C@H](Cc1c[nH]cn1)NC(=O)[C@H](C)NC(=O)[C@H](CC(N)=O)NC(=O)[C@H](CCCCN)NC(=O)[C@H](C)NC(=O)[C@H](CCCCN)NC(=O)[C@H](CC(C)C)NC(=O)[C@H](C)NC(=O)[C@H](CCCNC(=N)N)NC(=O)[C@@H](NC(=O)[C@@H](N)CCCCN)[C@@H](C)CC)[C@@H](C)CC)C(=O)N[C@@H](C)C(=O)N[C@@H](C)C(=O)N[C@@H](CC(C)C)C(=O)N[C@@H](CCC(=O)O)C(=O)N[C@@H](CCC(N)=O)C(=O)O` [SAF-p2D] (H-KIRALKAKNAHLKQEIAALEQEIAALEQ-OH), the “LD DATA @ 100 μM (signal)” value [4] was “no”, the “EM DATA @ 100 μM (fibres)” value [2] was “no” and the “CD DATA @ 10 μM (α-helix)” value [3] was ~15%. For the same compound, the “CD DATA @ 100 μM (α-helix)” value [3] was ~45%.

With “K ISALKNK NASLKQE IAALEQE IAALEQ (KISALKNKNASLKQEIAALEQEIAALEQ) [SAF-p2A]” the “DESIGN remark on solubility / precipitation” value [1] was “low solubility” and the “CD DATA @ 10 μM (α-helix)” value [3] was “unfolded”.

With tropomyosin [reference compound] the LD signal ([4]; 20 μM) was “could be aligned to give a LD signal”.
